According to US9040565B2, “1H-benzimidazole-5-carboxamides as anti-inflammatory agents” (Orexo AB, priority 2008, dated 2015):

Molecular target: T1, recombinant human mPGES-1 (Homo sapiens, UniProt O14684)
T1 construct: made in house; host or cells: Rosetta E. coli (microsomal/membrane fraction)
T1 sequence (O14684 1-152): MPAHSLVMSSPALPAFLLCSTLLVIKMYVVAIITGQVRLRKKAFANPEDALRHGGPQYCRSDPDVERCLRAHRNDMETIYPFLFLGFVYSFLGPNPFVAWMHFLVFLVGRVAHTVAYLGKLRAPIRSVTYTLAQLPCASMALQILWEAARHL
Experiment: mPGES-1 inhibition, HTRF detection of PGE2 (Biological Test)
Format: biochemical
Protocol: Microsomes from Rosetta E. coli bacteria expressing recombinant human mPGES-1 is dissolved in 0.1 M KPi pH 7.4 buffer containing 2.5 mM GSH. 50 μl of the enzyme is subsequently dispensed in a 384-well plate. 0.5 μl of the inhibitor dissolved in DMSO at is thereafter added to each well and incubated for 25 minutes at room temperature.
Subsequently, 2 μl of PGH2 dissolved in an appropriate solvent is added to each well and after one minute the acidified stop solution containing FeCl2 is added. 4 μl of the total volume is transferred to a separate plate and diluted 750-fold in two separate steps before HTRF detection of PGE2.
The HTRf detection is performed by the use of a commercially available kit from CisBio essentially according to the manufacturer's protocol. Briefly, 10 μl of the diluted sample is transferred to a white 384-well plate. 5 μl of d2 and 5 μl Eu3+-Cryptate labeled anti-PGE2 is added to each well containing samples by the use of a Multidrop. The plate is covered with a plastic self-adhesive film, centrifuged at 1200 rpm for 1 minute and subsequently stored at +4° C. over night.
After over night incubation the fluorescence is measured by the use of an appropriate microplate reader. The fluorescence of europium cryptate, and d2 are measured using the following excitation and emission wavelength, europium cryptate: λmax^ex=307 nm, λmax^em=620 nm and d2: λmax^ex=620 nm, λmax^em=665 nm), respectively. The extent of the specific FRET is measured as a ratio of the emission intensity at 665 nm vs. that at 620 nm. A standard curve using synthetic PGE2 is used to quantify the amount of PGE2 in unknown samples.

SMILES	inhibition at 10 µM [%]
Cn1c(Nc2c(Cl)cncc2Cl)nc2cc(C(=O)Nc3ccc(Br)cc3)ccc21 [Example 410, N-(4-Bromophenyl)-2-(3,5-dichloropyridin-4-ylamino)-1-methyl-1H-benzimidazole-5-carboxamide]	100
COCCOc1cc2c(cc1C(=O)NC1CCC(C)(C)CC1)nc(Nc1c(Cl)cncc1Cl)n2C [Example 671, 2-(3,5-Dichloropyridin-4-ylamino)-N-(4,4-dimethyl-cyclohexyl)-6-(2-methoxy-ethoxy)-1-methyl-1H-benzimidazole-5-carboxamide]	100
O=C(Nc1cccc(Cl)c1)c1ccc2nc(Nc3c(Cl)cncc3Cl)[nH]c2c1 [Example 434, N-(3-Chlorophenyl)-2-(3,5-dichloropyridin-4-ylamino)-1H-benzimidazole-5-carboxamide]	98
O=C(N[C@H]1CC[C@H](C(F)(F)F)CC1)c1cc2nc(Nc3c(Cl)cncc3Cl)[nH]c2cc1OCCF [Example 677, 2-(3,5-Dichloropyridin-4-ylamino)-N-(trans-4-trifluoromethyl-cyclohex-1-yl)-6-(2-fluoroethoxy)-1H-benzimidazole-5-carboxamide]	100
CCOc1cc2[nH]c(Nc3c(Cl)cncc3Cl)nc2cc1C(=O)NC1CCC(C)(C)CC1 [Example 669, 2-(3,5-Dichloropyridin-4-ylamino)-N-(4,4-dimethyl-cyclohexyl)-6-ethoxy-1H-benzimidazole-5-carboxamide]	100
O=C(NCC(F)(F)C(F)(F)C(F)(F)C(F)(F)F)c1cc2nc(Nc3ncc(Cl)cc3Cl)[nH]c2cc1OC(F)F [Example 700, 2-(3,5-Dichloro-pyridin-2-yl-amino)-N-(2,2,3,3,4,4,5,5,5-nonafluoro-pentyl)-6-(difluoromethoxy)-1H-benzimidazole-5-carboxamide]	98
Cn1c(Nc2c(Cl)cncc2Cl)nc2cc(C(=O)NCc3ccccc3C(F)(F)F)c(OC3CCOC3)cc21 (stereo not drawn) [Example 665, 2-(3,5-Dichloropyridin-4-ylamino)-N-((2-trifluoromethyl-phen-1-yl)-methyl)-6-(tetrahydrofuran-3-yl-oxy)-1-methyl-1H-benzimidazole-5-carboxamide]	99
Cc1ccnc(Cl)c1Nc1nc2ccc(C(=O)Nc3cccc(Cl)c3)cc2[nH]1 [Example 521, 2-(2-Chloro-4-methylpyridin-3-ylamino)-N-(3-chlorophenyl)-1H-benzimidazole-5-carboxamide]	95
CCOc1cc2c(cc1C(=O)NCc1ncccc1C(F)(F)F)nc(Nc1c(Cl)cncc1Cl)n2C [Example 668, 2-(3,5-Dichloropyridin-4-ylamino)-N-((3-trifluoromethyl-pyridin-2-yl)-methyl)-6-ethoxy-1-methyl-1H-benzimidazole-5-carboxamide]	100
CC1(C)CCC(NC(=O)c2cc3nc(Nc4c(Cl)cncc4Cl)[nH]c3cc2F)CC1 [Example 673, 2-(3,5-Dichloro-pyridin-4-yl-amino)-6-fluoro-N-(4,4-dimethyl-cyclohex-1-yl)-1H-benzimidazole-5-carboxamide]	100
COCCOc1cc2c(cc1C(=O)Nc1ccc(Br)cc1)nc(Nc1c(Cl)cncc1Cl)n2C [Example 666, 2-(3,5-Dichloropyridin-4-ylamino)-N-(4-bromophenyl)-6-(2-methoxy-ethoxy)-1-methyl-1H-benzimidazole-5-carboxamide]	100
CC1(C)CCC(NC(=O)c2ccc3nc(Nc4c(Cl)cncc4Cl)[nH]c3c2)CC1 [Example 409, 2-(3,5-Dichloropyridin-4-ylamino)-N-(4,4-dimethylcyclohexyl)-1H-benzimidazole-6-carboxamide]	100
CN(C)c1cc(C(F)(F)F)cc(NC(=O)c2cc3nc(Nc4c(Cl)cncc4Cl)[nH]c3cc2OCC(F)(F)F)n1 [Example 656, 2-(3,5-Dichloro-pyridin-4-yl-amino)-6-(2,2,2-trifluoroethoxy)-N-(6-dimethylamino-4-trifluoromethyl-pyridin-2-yl)-1H-benzimidazole-5-carboxamide]	96
O=C(Nc1ccc(Br)cc1)c1cc2nc(Nc3c(Cl)cncc3Cl)[nH]c2cc1OCCF [Example 678, 2-(3,5-Dichloropyridin-4-ylamino)-N-(4-bromophenyl)-6-(2-fluoroethoxy)-1H-benzimidazole-5-carboxamide]	100
CC1(C)CCC(NC(=O)c2ccc3[nH]c(Nc4c(Cl)cncc4Cl)nc3c2)CC1 [Example 446, 2-(3,5-Dichloropyridin-4-ylamino)-N-(4,4-dimethylcyclohexyl)-1H-benzimidazole-5-carboxamide]	100
CCOc1cc2[nH]c(Nc3c(Cl)cncc3Cl)nc2cc1C(=O)NCc1ncccc1C(F)(F)F [Example 667, 2-(3,5-Dichloropyridin-4-ylamino)-N-((3-trifluoromethyl-pyridin-2-yl)-methyl)-6-ethoxy-1H-benzimidazole-5-carboxamide]	99
Cn1c(Nc2c(Cl)cncc2Cl)nc2cc(C(=O)NC3CCCCC3)ccc21 [Example 547, N-Cyclohexyl-2-(3,5-dichloropyridin-4-ylamino)-1-methyl-1H-benzimidazole-5-carboxamide]	96

Continued, values first:

inhibition at 10 µM [%]	SMILES
98	O=C(NCc1ncccc1C(F)F)c1cc2nc(Nc3c(Cl)cncc3Cl)[nH]c2cc1OCC(F)(F)F [Example 711, 2-(3,5-Dichloropyridin-4-ylamino)-N-((3-difluoromethyl-pyridin-2-yl)-methyl)-6-(2,2,2-trifluoro-ethoxy)-1H-benzimidazole-5-carboxamide]
100	CCOc1cc2[nH]c(Nc3c(Cl)cncc3Cl)nc2cc1C(=O)NCc1ccccc1C(F)(F)F [Example 689, 2-(3,5-Dichloropyridin-4-ylamino)-N-((2-trifluoromethyl-phen-1-yl)-methyl)-6-ethoxy-1H-benzimidazole-5-carboxamide]
99	CCOc1cc2[nH]c(Nc3c(Cl)cncc3Cl)nc2cc1C(=O)Nc1cccc(C(F)F)n1 [Example 698]
100	COc1cc2[nH]c(Nc3c(Cl)cncc3Cl)nc2cc1C(=O)Nc1cc(C(F)(F)F)ccn1 [Example 680, 2-(3,5-Dichloropyridin-4-ylamino)-N-(4-trifluoromethyl-pyridin-2-yl)-6-methoxy-1H-benzimidazole-5-carboxamide]
96	CN(C)CCOc1cc2[nH]c(Nc3c(Cl)cncc3Cl)nc2cc1C(=O)Nc1ccc(Br)cc1 [Example 687, 2-(3,5-Dichloro-pyridin-4-ylamino)-6-(2-dimethylamino-ethoxy)-N-(4-bromo-phenyl)-1H-benzimidazole-5-carboxamide]
100	COc1cc2c(cc1C(=O)Nc1ccc(Br)cc1)nc(Nc1c(Cl)cncc1Cl)n2C [Example 679, 2-(3,5-Dichloro-pyridin-4-ylamino)-6-methoxy-N-(4-bromophenyl)-1-methyl-1H-benzimidazole-5-carboxamide]
100	CC(F)(F)c1cccc(NC(=O)c2cc3nc(Nc4c(Cl)cncc4Cl)[nH]c3cc2OCC(F)(F)F)n1 [Example 706]
98	CCOc1cc2[nH]c(Nc3c(Cl)cncc3Cl)nc2cc1C(=O)Nc1ccc(F)c(C(F)F)n1 [Example 710, 2-(3,5-Dichloropyridin-4-ylamino)-N-(5-fluoro-6-difluoromethyl-pyridin-2-yl)-6-ethoxy-1H-benzimidazole-6-carboxamide]
100	CCOc1cc2c(cc1C(=O)Nc1ccc(Br)cc1)nc(Nc1c(Cl)cncc1Cl)n2CC(F)(F)F [Example 704]
94	CCOc1cc2[nH]c(Nc3c(Cl)cncc3Cl)nc2cc1C(=O)Nc1ccc(Br)cc1 [Example 695, 2-(3,5-Dichloropyridin-4-ylamino)-N-(4-bromo-phenyl)-6-ethoxy-1H-benzimidazole-6-carboxamide]
100	COc1cc2[nH]c(Nc3c(Cl)cncc3Cl)nc2cc1C(=O)Nc1cc(C(F)(F)F)cc(C)n1 [Example 681, 2-(3,5-Dichloro-pyridin-4-ylamino)-6-methoxy-N-(6-methyl-4-trifluoromethyl-pyridin-2-yl)-1H-benzimidazole-5-carboxamide]
100	O=C(N[C@H]1CC[C@H](C(F)(F)F)CC1)c1cc2nc(Nc3c(Cl)cncc3Cl)[nH]c2cc1OC(F)F [Example 701, 2-(3,5-Dichloropyridin-4-ylamino)-N-(trans-4-trifluoromethyl-cyclohex-1-yl)-6-difluoromethoxy-1H-benzimidazole-5-carboxamide]
98	COCCOc1cc2[nH]c(Nc3c(Cl)cncc3Cl)nc2cc1C(=O)Nc1ccc(Br)cc1 [Example 685, 2-(3,5-Dichloro-pyridin-4-ylamino)-6-(2-methoxy-ethoxy)-N-(4-bromo-phenyl)-1H-benzimidazole-5-carboxamide]
